Results taken from patent US7544704B2, “Aryl-4-ethynyl-isoxazole derivatives” (Hoffmann-La Roche Inc., priority 2006, dated 2009).

The compounds below were run against T1, human GABA A receptor α5β3γ2 (Homo sapiens, UniProt P18507+P31644) (assay: [3H]flumazenil competition binding to HEK293 cell membranes expressing human GABA A α5β3γ2). Details: displacement of [3H]flumazenil (0.5 nM), human α5β3γ2 transiently transfected in HEK293, means of two determinations; read-out: Ki[nM] hα5.
T1 construct: expressed in transfected cells; host or cells: HEK293 (transiently transfected), membranes
Description: Membrane Preparation and Binding Assay
The affinity of compounds at GABA A receptor subtypes was measured by competition for [3H]flumazenil (85 Ci/mmol; Roche) binding to HEK293 cells expressing rat (stably transfected) or human (transiently transfected) receptors of composition α1β3γ2, α2β3γ2, α3β3γ2 and α5β3γ2.
Cell pellets were suspended in Krebs-tris buffer (4.8 mM KCl, 1.2 mM CaCl2, 1.2 mM MgCl2, 120 mM NaCl, 15 mM Tris; pH 7.5; binding assay buffer), homogenized by polytron for ca. 20 sec on ice and centrifuged for 60 min at 4° C. (50000 g; Sorvall, rotor: SM24=20000 rpm). The cell pellets were resuspended in Krebs-tris buffer and homogenized by polytron for ca. 15 sec on ice. Protein was measured (Bradford method, Bio-Rad) and aliquots of 1 mL were prepared and stored at −80° C.
Radioligand binding assays were carried out in a volume of […] (96-well plates) which contained […] of cell membranes, [3H]flumazenil at a concentration of 1 nM for α1, α2, α3 subunits and 0.5 nM for a5 subunits and the test compound in the range of […]. Nonspecific binding was defined by 10^−5 M diazepam and typically represented less than 5% of the total binding. Assays were incubated to equilibrium for 1 hour at 4° C. and harvested onto GF/C uni-filters (Packard) by filtration using a Packard harvester and washing with ice-cold wash buffer (50 mM Tris; pH 7.5). After drying, filter-retained radioactivity was detected by liquid scintillation counting. Ki values were calculated using Excel-Fit (Microsoft) and are the means of two determinations.

Compound	Ki
Cc1onc(-c2ccccc2)c1C#Cc1ccccn1 [Example 1, 2-(5-Methyl-3-phenyl-isoxazol-4-ylethynyl)-pyridine]	47.9 nM
Cc1onc(-c2ccccc2)c1C#Cc1cccc(C(=O)NC2CCOCC2)c1 [Example 8, 3-(5-Methyl-3-phenyl-isoxazol-4-ylethynyl)-N-(tetrahydro-pyran-4-yl)-benzamide]	91.6 nM
COC(=O)c1ccccc1C#Cc1c(-c2ccccc2)noc1C [Example 12, 2-(5-Methyl-3-phenyl-isoxazol-4-ylethynyl)-benzoic acid methyl ester]	87.3 nM
Cc1onc(-c2ccccc2)c1C#Cc1ccccc1N [Example 14, 2-(5-Methyl-3-phenyl-isoxazol-4-ylethynyl)-phenylamine]	38.4 nM
COC(=O)c1ccnc(C#Cc2c(-c3ccccc3)noc2C)c1 [Example 17, 2-(5-Methyl-3-phenyl-isoxazol-4-ylethynyl)-isonicotinic acid methyl ester]	74.9 nM
Cc1ccc(C#Cc2c(-c3ccccc3)noc2C)nn1 [Example 19, 3-Methyl-6-(5-methyl-3-phenyl-isoxazol-4-ylethynyl)-pyridazine]	26.6 nM
Cc1onc(-c2ccccc2)c1C#Cc1nccn1C [Example 21, 5-Methyl-4-(1-methyl-1H-imidazol-2-ylethynyl)-3-phenyl-isoxazole]	26 nM
Cc1ncc(C#Cc2c(-c3ccccc3)noc2C)[nH]1 [Example 22, 5-Methyl-4-(2-methyl-3H-imidazol-4-ylethynyl)-3-phenyl-isoxazole]	77.2 nM
Cc1c[nH]nc1C#Cc1c(-c2ccccc2)noc1C [Example 23, 5-Methyl-4-(4-methyl-1H-pyrazol-3-ylethynyl)-3-phenyl-isoxazole]	53 nM
CCOC(=O)c1nc(C)sc1C#Cc1c(-c2ccccc2)noc1C [Example 24, 2-Methyl-5-(5-methyl-3-phenyl-isoxazol-4-ylethynyl)-thiazole-4-carboxylic acid ethyl ester]	85.2 nM
Cc1cnc(C)c(C#Cc2c(-c3ccccc3)noc2C)n1 [Example 26, 2,5-Dimethyl-3-(5-methyl-3-phenyl-isoxazol-4-ylethynyl)-pyrazine]	10.4 nM
Cc1onc(-c2ccccc2)c1C#Cc1cc(C(=O)NCC2CC2)ccn1 [Example 27, N-Cyclopropylmethyl-2-(5-methyl-3-phenyl-isoxazol-4-ylethynyl)-isonicotinamide]	39.8 nM
Cc1onc(-c2ccccc2)c1C#Cc1cc(C(=O)NC2CCOCC2)ccn1 [Example 28, 2-(5-Methyl-3-phenyl-isoxazol-4-ylethynyl)-N-(tetrahydro-pyran-4-yl)-isonicotinamide]	20.7 nM
Cc1csc(NC(=O)c2ccnc(C#Cc3c(-c4ccccc4)noc3C)c2)n1 [Example 29, 2-(5-Methyl-3-phenyl-isoxazol-4-ylethynyl)-N-(4-methyl-thiazol-2-yl)-isonicotinamide]	90.1 nM
Cc1onc(-c2ccccc2)c1C#Cc1cccc(Cl)n1 [Example 30, 2-Chloro-6-(5-methyl-3-phenyl-isoxazol-4-ylethynyl)-pyridine]	71.9 nM
Cc1ccc(C#Cc2c(-c3ccccc3)noc2C)nc1 [Example 31, 5-Methyl-2-(5-methyl-3-phenyl-isoxazol-4-ylethynyl)-pyridine]	45.5 nM
Cc1onc(-c2ccccc2)c1C#Cc1ncc(-c2ccccc2)n1C [Example 32, 5-Methyl-4-(1-methyl-5-phenyl-1H-imidazol-2-ylethynyl)-3-phenyl-isoxazole]	28.4 nM
Cc1onc(-c2ccccc2)c1C#Cc1ncc(C)n1-c1ccccc1 [Example 33, 5-Methyl-4-(5-methyl-1-phenyl-1H-imidazol-2-ylethynyl)-3-phenyl-isoxazole]	23.7 nM

Compound	Ki
Cc1onc(-c2ccccc2)c1C#Cc1cnccn1 [Example 34, 2-(5-Methyl-3-phenyl-isoxazol-4-ylethynyl)-pyrazine]	59.2 nM
Cc1cccc(C#Cc2c(-c3ccccc3)noc2C)n1 [Example 35, 2-Methyl-6-(5-methyl-3-phenyl-isoxazol-4-ylethynyl)-pyridine]	39.3 nM
Cc1ccnc(C#Cc2c(-c3ccccc3)noc2C)c1 [Example 37, 4-Methyl-2-(5-methyl-3-phenyl-isoxazol-4-ylethynyl)-pyridine]	48 nM
Cc1onc(-c2ccccc2)c1C#Cc1cc(C(F)(F)F)ccn1 [Example 38, 2-(5-Methyl-3-phenyl-isoxazol-4-ylethynyl)-4-trifluoromethyl-pyridine]	37 nM
Cc1cccnc1C#Cc1c(-c2ccccc2)noc1C [Example 39, 3-Methyl-2-(5-methyl-3-phenyl-isoxazol-4-ylethynyl)-pyridine]	28.9 nM
Cc1onc(-c2ccccc2)c1C#Cc1ccc(N)cn1 [Example 41, 6-(5-Methyl-3-phenyl-isoxazol-4-ylethynyl)-pyridin-3-ylamine]	55.7 nM
Cc1onc(-c2ccccc2)c1C#Cc1ccc(Cl)cn1 [Example 42, 5-Chloro-2-(5-methyl-3-phenyl-isoxazol-4-ylethynyl)-pyridine]	81.7 nM
CCc1ccnc(C#Cc2c(-c3ccccc3)noc2C)c1 [Example 44, 4-Ethyl-2-(5-methyl-3-phenyl-isoxazol-4-ylethynyl)-pyridine]	38.9 nM
Cc1onc(-c2ccccc2)c1C#Cc1cnc2ccccc2n1 [Example 45, 2-(5-Methyl-3-phenyl-isoxazol-4-ylethynyl)-quinoxaline]	84.4 nM
Cc1onc(-c2ccccc2)c1C#Cc1cncc(N)n1 [Example 46, 6-(5-Methyl-3-phenyl-isoxazol-4-ylethynyl)-pyrazin-2-ylamine]	18.3 nM
Cc1onc(-c2ccccc2)c1C#Cc1cnc(N)cn1 [Example 47, 5-(5-Methyl-3-phenyl-isoxazol-4-ylethynyl)-pyrazin-2-ylamine]	37.2 nM
CCOC(=O)c1c(C)nc(C#Cc2c(-c3ccccc3)noc2C)n1C [Example 50, 3,5-Dimethyl-2-(5-methyl-3-phenyl-isoxazol-4-ylethynyl)-3H-imidazole-4-carboxylic acid ethyl ester]	7.3 nM
Cc1onc(-c2ccccc2)c1C#Cc1nc2n(c1C)CCCC2 [Example 52, 3-Methyl-2-(5-methyl-3-phenyl-isoxazol-4-ylethynyl)-5,6,7,8-tetrahydro-imidazo[1,2-a]pyridine]	15.5 nM
Cc1onc(-c2ccccc2)c1C#Cc1cc(-c2ccc(F)cc2)n(C)n1 [Example 53, 4-[5-(4-Fluoro-phenyl)-1-methyl-1H-pyrazol-3-ylethynyl]-5-methyl-3-phenyl-isoxazole]	52.6 nM
Cc1onc(-c2ccccc2)c1C#Cc1nc(C)n(-c2cc(F)cc(F)c2)c1C [Example 56, 4-[1-(3,5-Difluoro-phenyl)-2,5-dimethyl-1H-imidazol-4-ylethynyl]-5-methyl-3-phenyl-isoxazole]	23.5 nM
Cc1onc(-c2ccccc2)c1C#Cc1nc(C)n(-c2ccc(F)cc2)c1C [Example 57, 4-[1-(4-Fluoro-phenyl)-2,5-dimethyl-1H-imidazol-4-ylethynyl]-5-methyl-3-phenyl-isoxazole]	39.1 nM
Cc1onc(-c2ccc(Cl)cc2)c1C#Cc1ccccn1 [Example 59, 2-[3-(4-Chloro-phenyl)-5-methyl-isoxazol-4-ylethynyl]-pyridine]	54.5 nM
COC(=O)c1csc(C#Cc2c(-c3ccccc3)noc2C)n1 [Example 61, 2-(5-Methyl-3-phenyl-isoxazol-4-ylethynyl)-thiazole-4-carboxylic acid methyl ester]	31.9 nM
